Reference: US5068247A, “2-aminopentanoic acid compounds and their use as immunosuppressants” (priority 1989, dated 1991)

Assays:
[1] = tested on: IL-2 response of mouse thymocytes; experiment: suppression of the IL-2 response of mouse thymocytes; type: cell-based; conditions: for inhibition at 0.0001 µg/mL / inhibition at 0.001 µg/mL / inhibition at 0.01 µg/mL / inhibition at 0.1 µg/mL / inhibition at 1 µg/mL: Mus musculus, Thymocyte, 72 h
Description: (§1) The thymus was resected from 6-week-old male C3H/HeN mice, and a single cell suspension was prepared using the serum-free RPMI1640 culture medium. After washing three times, the cell suspension was adjusted to a concentration of 1.5×10^7 cells/ml in the RPMI1640 culture medium supplemented with 10^-4 M 2-mercaptoethanol and 20% FCS. […] After culturing the suspension for further 18 hours, the cells were harvested by a cell harvester, and the radioactivity incorporated into the cells was measured by a liquid scintillation counter, which was used as an index of IL-1, IL-2 or IL-4 response. The suppression of IL-1, IL-2 or IL-4 response was evaluated by calculating the percent suppression by the following formula. [formula]

[2] = tested on: IL-1 response of mouse thymocytes; experiment: suppression of the IL-1 response of mouse thymocytes; type: cell-based; conditions: IL-1 50 U/ml
Description: The thymus was resected from 6-week-old male C3H/HeN mice, and a single cell suspension was prepared using the serum-free RPMI1640 culture medium. After washing three times, the cell suspension was adjusted to a concentration of 1.5×10^7 cells/ml in the RPMI1640 culture medium supplemented with 10^-4 M 2-mercaptoethanol and 20% FCS. […] After termination of culture, 18.5 KBq/well of ^3 H-thymidine was added thereto. After culturing the suspension for further 18 hours, the cells were harvested by a cell harvester, and the radioactivity incorporated into the cells was measured by a liquid scintillation counter, which was used as an index of IL-1, IL-2 or IL-4 response. The suppression of IL-1, IL-2 or IL-4 response was evaluated by calculating the percent suppression by the following formula. [formula]

[3] = tested on: IL-4 response of mouse thymocytes; experiment: suppression of the IL-4 response of mouse thymocytes; type: cell-based; conditions: for inhibition at 0.0001 µg/mL / inhibition at 0.001 µg/mL / inhibition at 0.01 µg/mL / inhibition at 0.1 µg/mL / inhibition at 1 µg/mL: Mus musculus, Thymocyte, 72 h
Description: as §1

[4] = tested on: mouse acute graft versus host reaction (GVHR); experiment: suppression of mouse acute graft versus host reaction (GVHR); type: in vivo
Description: C57BL/6 mouse spleen cell suspension (2×10^7 cells/mouse) was injected into the right hind footpad of 5- to 7-week-old BDF1 female mice. Seven days after injection, right popliteal lymph node was resected to measure the weight thereof and compare the weight with that of the left popliteal lymph node of the control mice injected with physiological saline, which was used as an index of acute graft versus host reaction (GVHR). The compound of Example 5 was administered intraperitoneally at the dose of 0.3 mg/kg, orally at the dose of 1 mg/kg and intramuscularly at the doses of 0.3 and 1 mg/kg for 6 days from the day of injection, and at the seventh day, the weight of the right poples lymphonodus was measured.

[5] = tested on: anti-sheep red blood cell antibody production; experiment: suppression of mouse anti-sheep red blood cell antibody production; type: in vivo; conditions: for Body weight at 4 days later / Body weight on immunized day / Number of PFC per 1 × 10^7 cell / Number of PFC per spleen / Number of spleen cells / Suppression of number of PFC per 1 × 10^7 cell / Suppression of number of PFC per spleen / Wet weight of spleen / Wet weight of thymus: 4 days
Description: Male 5- to 7-week-old BALB/c mice were immunized with sheep red blood cells (5×10^7 cells/mouse, intravenous administration), and the test substance was administered intraperitoneally at the dose of 3 to 10 mg/kg/day for 4 consecutive days from the day of immunization. Four days after immunization, the spleen was resected, and suppression of anti-sheep red blood cell antibody production was examined by counting the number of plaque-forming cells (PFC) by direct plaque method using sheep red blood cells and guinea pig complement. At the same time, the body weight of the mouse, wet weight of the thymus and the spleen, and the number of spleen cells were also determined.

CCCCCCCCCCCCC/C=C/C[C@@H](O)[C@H](O)[C@@](N)(CO)C(=O)O [Example 5]
3H-thymidine uptake ([1]; 0.0001 μg/ml, IL-2 10 U/ml): 2810 cpm
3H-thymidine uptake ([1]; 0.0001 μg/ml, IL-2 50 U/ml): 63715 cpm
3H-thymidine uptake ([1]; 0.001 μg/ml, IL-2 10 U/ml): 1660 cpm
3H-thymidine uptake ([1]; 0.001 μg/ml, IL-2 50 U/ml): 57600 cpm
3H-thymidine uptake ([1]; 0.01 μg/ml, IL-2 10 U/ml): 1285 cpm
3H-thymidine uptake ([1]; 0.01 μg/ml, IL-2 50 U/ml): 32955 cpm
3H-thymidine uptake ([1]; 0.1 μg/ml, IL-2 10 U/ml): 1125 cpm
3H-thymidine uptake ([1]; 0.1 μg/ml, IL-2 50 U/ml): 24600 cpm
3H-thymidine uptake ([1]; 1 μg/ml, IL-2 10 U/ml): 1300 cpm
3H-thymidine uptake ([1]; 1 μg/ml, IL-2 50 U/ml): 25525 cpm
inhibition at 0.0001 µg/mL ([1]; 0.0001 μg/ml, IL-2 10 U/ml): 0%
inhibition at 0.0001 µg/mL ([1]; 0.0001 μg/ml, IL-2 50 U/ml): 0%
inhibition at 0.001 µg/mL ([1]; 0.001 μg/ml, IL-2 10 U/ml): 46.7%
inhibition at 0.001 µg/mL ([1]; 0.001 μg/ml, IL-2 50 U/ml): 4.5%
inhibition at 0.01 µg/mL ([1]; 0.01 μg/ml, IL-2 10 U/ml): 62.1%
inhibition at 0.1 µg/mL ([1]; 0.1 μg/ml, IL-2 10 U/ml): 68.6%
inhibition at 0.1 µg/mL ([1]; 0.1 μg/ml, IL-2 50 U/ml): 59.4%
inhibition at 1 µg/mL ([1]; 1 μg/ml, IL-2 10 U/ml): 61.5%
inhibition at 1 µg/mL ([1]; 1 μg/ml, IL-2 50 U/ml): 58%
inhibition at 0.01 µg/mL ([1]; 0.01 μg/ml, IL-2 50 U/ml): 45.5%
3H-thymidine uptake ([2]; 0.0001 μg/ml): 10320 ± 1490 cpm
3H-thymidine uptake ([2]; 0.001 μg/ml): 7756 ± 686 cpm
3H-thymidine uptake ([2]; 0.01 μg/ml): 1239 ± 548 cpm
3H-thymidine uptake ([2]; 0.1 μg/ml): 595 ± 144 cpm
3H-thymidine uptake ([2]; 1 μg/ml): 419 ± 36 cpm
inhibition at 0.0001 µg/mL ([2]; Mus musculus, Thymocyte, 72 h, 0.0001 μg/ml): 11.3%
inhibition at 0.001 µg/mL ([2]; Mus musculus, Thymocyte, 72 h, 0.001 μg/ml): 33.7%
inhibition at 0.01 µg/mL ([2]; Mus musculus, Thymocyte, 72 h, 0.01 μg/ml): 90.7%
inhibition at 0.1 µg/mL ([2]; Mus musculus, Thymocyte, 72 h, 0.1 μg/ml): 96.3%
inhibition at 1 µg/mL ([2]; Mus musculus, Thymocyte, 72 h, 1 μg/ml): 97.8%
3H-thymidine uptake ([3]; 0.0001 μg/ml, IL-4 50 U/ml): 3190 cpm
3H-thymidine uptake ([3]; 0.0001 μg/ml, IL-4 250 U/ml): 45895 cpm
3H-thymidine uptake ([3]; 0.001 μg/ml, IL-4 50 U/ml): 2025 cpm
3H-thymidine uptake ([3]; 0.001 μg/ml, IL-4 250 U/ml): 39150 cpm
3H-thymidine uptake ([3]; 0.01 μg/ml, IL-4 50 U/ml): 1385 cpm
3H-thymidine uptake ([3]; 0.01 μg/ml, IL-4 250 U/ml): 33515 cpm
3H-thymidine uptake ([3]; 0.1 μg/ml, IL-4 50 U/ml): 815 cpm
3H-thymidine uptake ([3]; 0.1 μg/ml, IL-4 250 U/ml): 24655 cpm
3H-thymidine uptake ([3]; 1 μg/ml, IL-4 50 U/ml): 885 cpm
3H-thymidine uptake ([3]; 1 μg/ml, IL-4 250 U/ml): 21250 cpm
inhibition at 0.0001 µg/mL ([3]; 0.0001 μg/ml, IL-4 50 U/ml): 0%
inhibition at 0.0001 µg/mL ([3]; 0.0001 μg/ml, IL-4 250 U/ml): 13.1%
inhibition at 0.001 µg/mL ([3]; 0.001 μg/ml, IL-4 50 U/ml): 8%
inhibition at 0.001 µg/mL ([3]; 0.001 μg/ml, IL-4 250 U/ml): 26%
inhibition at 0.01 µg/mL ([3]; 0.01 μg/ml, IL-4 50 U/ml): 40.6%
inhibition at 0.01 µg/mL ([3]; 0.01 μg/ml, IL-4 250 U/ml): 36.8%
inhibition at 0.1 µg/mL ([3]; 0.1 μg/ml, IL-4 50 U/ml): 69.7%
inhibition at 1 µg/mL ([3]; 1 μg/ml, IL-4 50 U/ml): 66.2%
inhibition at 1 µg/mL ([3]; 1 μg/ml, IL-4 250 U/ml): 60.2%
inhibition at 0.1 µg/mL ([3]; 0.1 μg/ml, IL-4 250 U/ml): 46.3%
Body weight 7 days after injection ([4]; 0.3 mg/kg/day im × 6): 20.0 ± 0.7 g
Popliteal lymph node weight ([4]; 0.3 mg/kg/day im × 6): 2.88 ± 0.58 mg
Suppression ([4]; 0.3 mg/kg/day im × 6): 60.0%
Body weight 7 days after injection ([4]; 0.3 mg/kg/day ip × 6): 19.0 ± 2.2 g
Popliteal lymph node weight ([4]; 0.3 mg/kg/day ip × 6): 4.46 ± 1.72 mg
Suppression ([4]; 0.3 mg/kg/day ip × 6): 38.1%
Body weight 7 days after injection ([4]; 1 mg/kg/day im × 6): 18.8 ± 1.3 g
Popliteal lymph node weight ([4]; 1 mg/kg/day im × 6): 2.28 ± 0.48 mg
Suppression ([4]; 1 mg/kg/day im × 6): 68.3%
Body weight 7 days after injection ([4]; 1 mg/kg/day po × 6): 20.4 ± 0.6 g
Popliteal lymph node weight ([4]; 1 mg/kg/day po × 6): 3.30 ± 0.64 mg
Suppression ([4]; 1 mg/kg/day po × 6): 54.2%
mouse acute graft versus host reaction (in words) ([4]; intraperitoneal, oral or intramuscular): strongly suppresses the mouse acute graft versus host reaction (GVHR)

CCCCCCCCCCCCCCCC[C@@H](O)[C@H](O)[C@@](N)(CO)C(=O)O [Example 2]
Body weight at 4 days later ([5]; 3 mg/kg/day ip): 24 ± 1 g
Body weight on immunized day ([5]; 3 mg/kg/day ip): 22 ± 1 g
Number of PFC per 1 × 10^7 cell ([5]; 3 mg/kg/day ip): 5.5 ± 0.8 × 10^3 /1 × 10^7 cell
Number of PFC per spleen ([5]; 3 mg/kg/day ip): 17.9 ± 3.6 × 10^4 /spleen
Number of spleen cells ([5]; 3 mg/kg/day ip): 3.3 ± 0.5 × 10^8 cell
Suppression of number of PFC per 1 × 10^7 cell ([5]; 3 mg/kg/day ip): 36.8%
Suppression of number of PFC per spleen ([5]; 3 mg/kg/day ip): 23.2%
Wet weight of spleen ([5]; 3 mg/kg/day ip): 58 ± 11 mg
Wet weight of thymus ([5]; 3 mg/kg/day ip): 318 ± 42 mg
Body weight at 4 days later ([5]; 10 mg/kg/day ip): 23 ± 1 g
Body weight on immunized day ([5]; 10 mg/kg/day ip): 22 ± 1 g
Number of PFC per 1 × 10^7 cell ([5]; 10 mg/kg/day ip): 4.0 ± 2.0 × 10^3 /1 × 10^7 cell
Number of PFC per spleen ([5]; 10 mg/kg/day ip): 10.2 ± 5.5 × 10^4 /spleen
Number of spleen cells ([5]; 10 mg/kg/day ip): 2.5 ± 0.2 × 10^8 cell
Suppression of number of PFC per 1 × 10^7 cell ([5]; 10 mg/kg/day ip): 54.9%
Suppression of number of PFC per spleen ([5]; 10 mg/kg/day ip): 56.2%
Wet weight of spleen ([5]; 10 mg/kg/day ip): 58 ± 10 mg
Wet weight of thymus ([5]; 10 mg/kg/day ip): 233 ± 25 mg
effect on anti-sheep red blood cell antibody production (in words) ([5]; ip): exhibits suppressive effect on anti-sheep red blood cell antibody production
